Experimental data from ChEMBL document CHEMBL5512671, “Structure-Based Optimization of Novel Sterol 24-C-Methyltransferase Inhibitors for the Treatment of Candida albicans Infections” (J Med Chem, 2024).
Values after ≈ are worked out from the molar mass of the structure shown.

Tests used:
Candida albicans [1] = experiment: Antifungal activity against Candida albicans SC5314 assessed as inhibition of fungal growth incubated for 24 hrs by CLSI protocol based broth microdilution method; assay type: functional
Candida albicans [2] = experiment: Antifungal activity against Candida albicans SC5314 assessed as inhibition of hyphae growth incubated for 24 hrs by CLSI protocol based broth microdilution method; assay type: functional

| SMILES | MIC80 (Candida albicans [1]) [µg/mL] | MIC50 (Candida albicans [2]) [µg/mL] |
| --- | --- | --- |
| Cc1c(-n2c(-c3ccc(Br)cc3)cs/c2=N\c2ccc(C(F)(F)F)cc2)c(=O)n(-c2ccccc2)n1C | > 128 | 8 (≈ 13.7 µM) |
| Cc1c(-n2c(-c3nccs3)cs/c2=N\c2ccccc2)c(=O)n(-c2ccccc2)n1C | > 128 | > 128 |
| Cc1c(-n2c(-c3ccc(Cl)cc3Cl)cs/c2=N\c2ccc(Br)cc2)c(=O)n(-c2ccccc2)n1C | > 128 | > 128 |
| Cc1c(-n2c(-c3ccc4ccc5cccc6ccc3c4c56)cs/c2=N\c2ccccc2)c(=O)n(-c2ccccc2)n1C | > 128 | > 128 |
| Cc1c(-n2c(-c3ccc4ccccc4c3)cs/c2=N\c2cccnc2)c(=O)n(-c2ccccc2)n1C | > 128 | 32 (≈ 65.4 µM) |
| Cc1c(-n2c(-c3ccc(O)c(C=O)c3)cs/c2=N\c2ccc(Br)cc2)c(=O)n(-c2ccccc2)n1C | > 128 | > 128 |
| Cc1c(-n2c(-c3ccc4ccccc4c3)cs/c2=N\c2cccc(OCc3ccccc3)c2)c(=O)n(-c2ccccc2)n1C | > 128 | > 128 |
| Cc1c(-n2c(C34CC5CC(CC(C5)C3)C4)cs/c2=N\c2ccccc2)c(=O)n(-c2ccccc2)n1C | > 128 | > 128 |
| Cc1c(-n2c(C3CCN(C(=O)OC(C)(C)C)CC3)cs/c2=N\c2ccccc2)c(=O)n(-c2ccccc2)n1C | > 128 | > 128 |
| Cc1c(-n2c(-c3ccccn3)cs/c2=N\c2ccc(Br)cc2)c(=O)n(-c2ccccc2)n1C | > 128 | > 128 |
| Cc1c(-n2c(-c3ccncc3)cs/c2=N\c2ccc(Br)cc2)c(=O)n(-c2ccccc2)n1C | > 128 | > 128 |
| Cc1c(-[n+]2c(-c3ccc(Br)cc3)csc2N(C)c2ccccc2)c(=O)n(-c2ccccc2)n1C.[I-] | > 128 | > 128 |
| Cc1c(-n2c(-c3cccnc3)cs/c2=N\c2ccc(Br)cc2)c(=O)n(-c2ccccc2)n1C | > 128 | > 128 |
| Cc1c(-n2c(-c3ccc(C#N)cc3)cs/c2=N\c2ccc(Br)cc2)c(=O)n(-c2ccccc2)n1C | > 128 | > 128 |
| Cc1c(-n2c(C3CC3)cs/c2=N\c2ccccc2)c(=O)n(-c2ccccc2)n1C | > 128 | > 128 |
| Cc1c(-n2c(-c3cccc([N+](=O)[O-])c3)cs/c2=N\c2ccc(Br)cc2)c(=O)n(-c2ccccc2)n1C | > 128 | > 128 |
| Cc1c(-n2c(-c3ccc(Br)cc3)cs/c2=N\c2cccnc2)c(=O)n(-c2ccccc2)n1C | > 128 | > 128 |
| Cc1c(-n2c(-c3ccc(F)cc3)cs/c2=N\c2ccc(Br)cc2)c(=O)n(-c2ccccc2)n1C | > 128 | > 128 |
| Cc1c(-n2c(-c3ccc(C(F)(F)F)cc3)cs/c2=N\c2ccc(Br)cc2)c(=O)n(-c2ccccc2)n1C | > 128 | > 128 |
| Cc1c(-n2c(-c3ccc(O)cc3)cs/c2=N\c2ccc(Br)cc2)c(=O)n(-c2ccccc2)n1C | > 128 | > 128 |
| COc1ccc(/N=c2\scc(-c3ccc(Br)cc3)n2-c2c(C)n(C)n(-c3ccccc3)c2=O)cc1 | > 128 | 16 (≈ 29.2 µM) |
| COc1ccc(/N=c2\scc(-c3ccc4ccccc4c3)n2-c2c(C)n(C)n(-c3ccccc3)c2=O)cc1 | > 128 | 4 (≈ 7.71 µM) |
| Cc1c(-n2c(-c3ccc(Cl)cc3)cs/c2=N\c2ccc(Br)cc2)c(=O)n(-c2ccccc2)n1C | > 128 | 8 (≈ 14.5 µM) |
| COc1cc(-c2cs/c(=N\c3ccccc3)n2-c2c(C)n(C)n(-c3ccccc3)c2=O)cc(OC)c1OC | > 128 | > 128 |

Other lines, results leading:

| MIC80 (Candida albicans [1]) [µg/mL] | MIC50 (Candida albicans [2]) [µg/mL] | SMILES |
| --- | --- | --- |
| > 128 | > 128 | Cc1c(-n2c(-c3ccncc3)cs/c2=N\c2ccccc2)c(=O)n(-c2ccccc2)n1C |
| > 128 | > 128 | Cc1c(-n2c(-c3ccc(O)cc3)cs/c2=N\c2ccccc2)c(=O)n(-c2ccccc2)n1C |
| > 128 | 8 (≈ 15.3 µM) | Cc1c(-n2c(-c3ccc(OC(F)(F)F)cc3)cs/c2=N\c2ccccc2)c(=O)n(-c2ccccc2)n1C |
| > 128 | > 128 | Cc1c(-n2c(-c3cccc(N)c3)cs/c2=N\c2ccccc2)c(=O)n(-c2ccccc2)n1C |
| > 128 | 4 (≈ 8.46 µM) | Cc1c(-n2c(-c3ccc(Cl)cc3)cs/c2=N\c2ccccc2)c(=O)n(-c2ccccc2)n1C |
| > 128 | > 128 | COc1ccc(-c2cs/c(=N\c3ccccc3)n2-c2c(C)n(C)n(-c3ccccc3)c2=O)cc1 |
| > 128 | > 128 | Cc1c(-n2c(-c3cc4ccccc4oc3=O)cs/c2=N\c2ccccc2)c(=O)n(-c2ccccc2)n1C |
| > 128 | > 128 | Cc1c(-n2c(-c3ccc(-c4ccccc4)cc3)cs/c2=N\c2ccccc2)c(=O)n(-c2ccccc2)n1C |
| > 128 | > 128 | Cc1c(-n2c(-c3cccnc3)cs/c2=N\c2ccccc2)c(=O)n(-c2ccccc2)n1C |
| > 128 | > 128 | Cc1c(-n2c(-c3cccs3)cs/c2=N\c2ccccc2)c(=O)n(-c2ccccc2)n1C |
| > 128 | > 128 | Cc1c(-n2c(-c3ccc(S(C)(=O)=O)cc3)cs/c2=N\c2ccccc2)c(=O)n(-c2ccccc2)n1C |
| > 128 | > 128 | Cc1c(-n2c(-c3ccc(Cl)cc3Cl)cs/c2=N\c2ccccc2)c(=O)n(-c2ccccc2)n1C |
| > 128 | > 128 | Cc1c(-n2c(-c3ccccn3)cs/c2=N\c2ccccc2)c(=O)n(-c2ccccc2)n1C |
| > 128 | > 128 | C=CC(=O)Nc1cccc(-c2cs/c(=N\c3ccccc3)n2-c2c(C)n(C)n(-c3ccccc3)c2=O)c1 |
| > 128 | > 128 | C#CCOc1ccc(-c2cs/c(=N\c3ccccc3)n2-c2c(C)n(C)n(-c3ccccc3)c2=O)cc1 |
| > 128 | > 128 | Cc1c(-n2c(-c3ccccc3)cs/c2=N\c2ccccc2)c(=O)n(-c2ccccc2)n1C |
| > 128 | > 128 | Cc1c(-n2c(-c3ccccc3Cl)cs/c2=N\c2ccccc2)c(=O)n(-c2ccccc2)n1C |
| > 128 | 4 (≈ 7.9 µM) | Cc1c(-n2c(-c3ccc(C(F)(F)F)cc3)cs/c2=N\c2ccccc2)c(=O)n(-c2ccccc2)n1C |
| > 128 | > 128 | Cc1c(-n2c(-c3cccc(F)c3)cs/c2=N\c2ccccc2)c(=O)n(-c2ccccc2)n1C |
| > 128 | > 128 | COc1cccc(-c2cs/c(=N\c3ccccc3)n2-c2c(C)n(C)n(-c3ccccc3)c2=O)c1 |
| > 128 | > 128 | COc1ccc2cc(-c3cs/c(=N\c4ccccc4)n3-c3c(C)n(C)n(-c4ccccc4)c3=O)ccc2c1 |
| > 128 | > 128 | Cc1c(-n2c(-c3ccc(I)cc3)cs/c2=N\c2ccccc2)c(=O)n(-c2ccccc2)n1C |
| > 128 | 2 (≈ 4.18 µM) | Cc1c(-n2c(-c3cc4ccccc4o3)cs/c2=N\c2ccccc2)c(=O)n(-c2ccccc2)n1C |
| > 128 | > 128 | Cc1c(-n2c(-c3ccc(F)cc3)cs/c2=N\c2ccccc2)c(=O)n(-c2ccccc2)n1C |
| > 128 | > 128 | Cc1c(-n2c(-c3ccc(O)c(C=O)c3)cs/c2=N\c2ccccc2)c(=O)n(-c2ccccc2)n1C |
| > 128 | > 128 | Cc1c(-n2c(-c3cccc([N+](=O)[O-])c3)cs/c2=N\c2ccccc2)c(=O)n(-c2ccccc2)n1C |
